Source: US6800641B2, “Antipsychotic aminomethyl derivatives of 7,8-dihydro-3H-6,9-dioxa-2,3-diaza-cyclopenta[a]naphthalene” (Wyeth, priority 2001, dated 2004)
Counter-ions that a name gives are not always drawn.

Experiments:
dopamine D2 receptor = molecular target: T1, dopamine D2 receptor (Rattus norvegicus, UniProt P61169); assay: Dopamine D2 receptor affinity, 3H-quinpirole binding in homogenized rat striatal brain tissue
T1 construct: from tissue; host or cells: rat striatal brain tissue homogenate
T1 sequence (P61169 whole entry): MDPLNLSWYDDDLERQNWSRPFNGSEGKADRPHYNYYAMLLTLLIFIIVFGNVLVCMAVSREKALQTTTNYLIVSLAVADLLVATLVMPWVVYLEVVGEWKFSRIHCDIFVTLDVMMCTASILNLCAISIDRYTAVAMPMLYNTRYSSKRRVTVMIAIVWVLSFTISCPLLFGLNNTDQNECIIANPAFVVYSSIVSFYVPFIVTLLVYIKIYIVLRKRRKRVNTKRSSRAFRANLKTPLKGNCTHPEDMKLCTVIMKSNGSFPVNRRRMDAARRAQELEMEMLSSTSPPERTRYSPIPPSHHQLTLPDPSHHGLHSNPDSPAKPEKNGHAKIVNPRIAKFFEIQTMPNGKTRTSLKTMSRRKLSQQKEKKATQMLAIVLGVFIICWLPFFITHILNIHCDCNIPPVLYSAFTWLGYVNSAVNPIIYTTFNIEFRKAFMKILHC
Experimental: Affinity for the dopamine D2 receptor was established by a modification of the standard experimental test procedure of Seemen and Schaus, European Journal of Pharmacology 203: 105-109, 1991, wherein homogenized rat striatal brain tissue is incubated with ^3H-quinpirole and various concentrations of test compound, filtered and washed and counted in a Betaplate scintillation counter.

| Structure (SMILES) | melting point [°C] | IC50 (dopamine D2 receptor) [nM] |
| --- | --- | --- |
| c1ccc(CNC[C@H]2COc3ccc4[nH]ncc4c3O2)cc1 (as salt: fumarate) (hydrate or solvate) [Example 1] | 194 to 195.7 |  |
| c1ccc(CCCCNC[C@H]2COc3ccc4[nH]ncc4c3O2)cc1 (as salt: hydrochloride) (hydrate or solvate) [Example 2] | 104 |  |
| c1cc2[nH]ncc2c2c1OCC(CNCC13CC4CC(CC(C4)C1)C3)O2 (centres unmarked) (as salt: hydrochloride) [Example 3, Adamantan-1-ylmethyl-(-7,8-dihydro-3H-6,9-dioxa-2,3-diaza-cyclopenta[a]naphthalen-8-ylmethyl)-amine] | > 300 |  |
| c1ccc2c(c1)CCN(CC1COc3ccc4[nH]ncc4c3O1)C2 (centres unmarked) (as salt: hydrochloride) [Example 5, 8-(3,4-Dihydro-1H-isoquinolin-2-ylmethyl)-7,8-dihydro-3H-6,9-dioxa-2,3-diaza-cyclopenta[a]naphthalene] | 170 to 172 |  |
| C1=C(c2c[nH]c3ccccc23)CCN(CC2COc3ccc4[nH]ncc4c3O2)C1 (centres unmarked) (as salt: hydrochloride) [Example 6, 8-[4-(1H-indol-3-yl)-3,6-dihydro-2H-pyridin-1-ylmethyl]-7,8-dihydro-3H-6,9-dioxa-2,3-diaza-cyclopenta[a]naphthalene] | 190 |  |
| Fc1ccc2[nH]cc(CC3CCN(CC4COc5ccc6[nH]ncc6c5O4)CC3)c2c1 (centres unmarked) (as salt: hydrochloride) [Example 7, 8-[4-(5-Fluoro-1H-indol-3-ylmethyl)-piperidin-1-ylmethyl]-7,8-dihydro-3H-6,9-dioxa-2,3-diaza-cyclopenta[a]naphthalene] | 165 |  |
| c1ccc2c(CCCNCC3COc4ccc5[nH]ncc5c4O3)c[nH]c2c1 (centres unmarked) (as salt: oxalate) [Example 4, (7,8-Dihydro-3H-6,9-dioxa-2,3-diaza-cyclopenta[a]naphthalen-8-ylmethyl)-[3-(1H-indol-3-yl)-propyl]-amine] | 138 to 142 |  |
| c1ccc(CNC[C@H]2COc3ccc4[nH]ncc4c3O2)cc1 [Example 1] |  | 0.45 |
| c1ccc(CCCCNC[C@H]2COc3ccc4[nH]ncc4c3O2)cc1 [Example 2] |  | 0.29 |
| c1cc2[nH]ncc2c2c1OCC(CNCC13CC4CC(CC(C4)C1)C3)O2 (centres unmarked) [Example 3, Adamantan-1-ylmethyl-(-7,8-dihydro-3H-6,9-dioxa-2,3-diaza-cyclopenta[a]naphthalen-8-ylmethyl)-amine] |  | 0.1 |
| c1ccc2c(CCCNCC3COc4ccc5[nH]ncc5c4O3)c[nH]c2c1 (centres unmarked) [Example 4, (7,8-Dihydro-3H-6,9-dioxa-2,3-diaza-cyclopenta[a]naphthalen-8-ylmethyl)-[3-(1H-indol-3-yl)-propyl]-amine] |  | 0.17 |
| c1ccc2c(c1)CCN(CC1COc3ccc4[nH]ncc4c3O1)C2 (centres unmarked) [Example 5, 8-(3,4-Dihydro-1H-isoquinolin-2-ylmethyl)-7,8-dihydro-3H-6,9-dioxa-2,3-diaza-cyclopenta[a]naphthalene] |  | 1.1 |
| C1=C(c2c[nH]c3ccccc23)CCN(CC2COc3ccc4[nH]ncc4c3O2)C1 (centres unmarked) [Example 6, 8-[4-(1H-indol-3-yl)-3,6-dihydro-2H-pyridin-1-ylmethyl]-7,8-dihydro-3H-6,9-dioxa-2,3-diaza-cyclopenta[a]naphthalene] |  | 4.5 |
| Fc1ccc2[nH]cc(CC3CCN(CC4COc5ccc6[nH]ncc6c5O4)CC3)c2c1 (centres unmarked) [Example 7, 8-[4-(5-Fluoro-1H-indol-3-ylmethyl)-piperidin-1-ylmethyl]-7,8-dihydro-3H-6,9-dioxa-2,3-diaza-cyclopenta[a]naphthalene] |  | 3.4 |
